Results: patent US7485601B2, “Herbicide composition” (Sumitomo Chemical Company, Limited, priority 2001, dated 2009)

Legend:
[1] = tested on: yellow nutsedge (Cyperus esculentus); assay: Herbicide effect by foliar spray on pot-grown yellow nutsedge in greenhouse (Test Example 1); format: in vivo; settings: evaluated 25 days after treatment, level 0-10
Description: (§1) Evaluation of phytotoxicity against a crop was shown by “no” when almost no phytotoxicity was observed, “low” when a low level phytotoxicity was observed, “medium” when a medium level phytotoxicity was observed and “high” when a high level phytotoxicity was observed.
(§2) A plastic pot of 11 cm in diameter and 8 cm in depth was filled with field soil. A tuber of yellow nutsedge (Cyperus esculentus) was planted and grown in a greenhouse for 21 days.
(§3) An emulsion of Compound A-1 was prepared by sufficiently mixing 5 parts of Compound A-1, 6 parts of Sorpol 3005×(surfactant, produced by Toho Chemical) and 89 parts of xylene.
(§4) Each of single use of an emulsion of Compound A-1, single use of an formulation of Chlorimuron-ethyl (commercial name: Classic, produced by Du Pont, containing 25% of Chlorimuron-ethyl), and a mixed composition of an emulsion of Compound A-1 and an formulation of Chlorimuron-ethyl, were diluted with water containing 1% Agri-dex (produced by Helena). Respective dilutions were uniformly sprayed from upper side onto foliages of yellow nutsedge grown as described above with a small sprayer such that the amounts of the active ingredients were the amounts shown in Table 4. […]
(§5) After the treatment, they were raised in a greenhouse for 25 days and the effect against weeds was evaluated. In addition, after 14 days of the treatment, the phytotoxicity to soybean was evaluated.

soybean = assay: Phytotoxicity to soybean sown immediately after treatment (Test Example 1); format: in vivo; settings: evaluated after 14 days
Description: as §1, §2, §3, §4, §5

## CCOC(=O)c1ccccc1S(=O)(=O)NC(=O)Nc1nc(Cl)cc(OC)n1 [Chlorimuron-ethyl, ethyl 2-(4-chloro-6-methoxypyrimidin-2-ylcarbamoylsulfamoyl)benzoate]
[1]; 5 g/ha active ingredient
  Herbicide Effect yellow nutsedge: 1
[1]; 20 g/ha active ingredient
  Herbicide Effect yellow nutsedge: 2
soybean; 5 g/ha active ingredient
  Phytotoxicity soybean: no
soybean; 20 g/ha active ingredient
  Phytotoxicity soybean: no
